From patent publication US20070231373A1, “Transdermal Steriod for Formulation” (HUNTER-FLEMING LIMITED, priority 2004, published 2007) come the findings set out here.

The series can be described thus: Permeation behaviour through excised rat skin in Franz type cell. It counts as in vitro ADME, Wistar rats. The following applies: conclusion from comparison with estradiol. Here is the method:
The materials used were as follows:
The excised abdominal rat skin was mounted on a Franz type cell (receiver volume: 3ml) with a water jacket connected to a water bath at 37° C. The patch was adhered to the stratum comeum side of the skin. The receiver compartment was filled with a mixture of PEG400 and water (1:3 by volume) and stirred with a star head magnetic bead driven by a constant speed motor. At predetermined times, 100 μl of sample was withdrawn from the receiver compartment, and the same volume of receptor solution was added to keep the volume constant. The drug concentration was analysed by HPLC.
For all adhesives, the amount of the drug which had permeated increased steadily with time.

Molecules are shown by their SMILES.

`CC12CCC3C(C1CCC2=O)[C@@H](O)C[C@H]1C[C@@H](O)CCC31C` (stereo partly drawn) [7β-OH EPIA, 7β-hydroxy-epiandrosterone]: the “skin permeability (in words)” value is given as “potential skin permeability”.

As for `C[C@]12CCC(=O)C=C1CC[C@@H]1[C@@H]2[C@@H](O)C[C@]2(C)C(=O)CC[C@@H]12` [HAD, 11β-hydroxy-4-androstene-3,17-dione], the “skin permeability (in words)” value was “potential skin permeability”.
